Source: ChEMBL document CHEMBL3352140, “Targeting the PPM1D phenotype; 2,4-bisarylthiazoles cause highly selective apoptosis in PPM1D amplified cell-lines” (Bioorg Med Chem Lett, 2014)
Activity calls are given as the source filed them. No cut-off for these calls is given here.

Legend:
[1] = Anticancer activity against human SMOV2 cells after 3 days incubation by SRB proliferation assay; format: functional; settings: SMOV2, 72 h
[2] = target: T1, Protein phosphatase 1D (Homo sapiens, UniProt O15297); experiment: Inhibition of PPM1D (unknown origin) phosphatase activity using peptide substrate TDDEMT*GY*VAT by malachite green/molybdate based assay
T1 sequence (O15297 whole entry): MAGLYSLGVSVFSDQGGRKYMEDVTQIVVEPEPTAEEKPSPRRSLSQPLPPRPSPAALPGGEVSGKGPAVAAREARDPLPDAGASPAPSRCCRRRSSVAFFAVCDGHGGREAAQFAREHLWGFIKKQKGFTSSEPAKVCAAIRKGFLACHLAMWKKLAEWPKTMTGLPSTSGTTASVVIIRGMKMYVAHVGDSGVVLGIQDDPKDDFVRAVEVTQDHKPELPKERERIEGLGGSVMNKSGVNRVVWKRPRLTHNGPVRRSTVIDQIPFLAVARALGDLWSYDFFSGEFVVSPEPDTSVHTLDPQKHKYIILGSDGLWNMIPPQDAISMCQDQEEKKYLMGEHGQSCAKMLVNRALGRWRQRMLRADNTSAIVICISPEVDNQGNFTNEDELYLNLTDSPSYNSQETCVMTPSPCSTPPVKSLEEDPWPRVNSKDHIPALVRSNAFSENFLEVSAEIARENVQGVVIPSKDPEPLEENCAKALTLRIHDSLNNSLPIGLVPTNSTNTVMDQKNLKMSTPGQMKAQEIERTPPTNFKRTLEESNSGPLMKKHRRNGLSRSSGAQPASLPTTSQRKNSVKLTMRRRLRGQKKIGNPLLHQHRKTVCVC

[3] = Anticancer activity against human TOV21G cells after 3 days incubation by SRB proliferation assay; format: functional; settings: 72 h
[4] = Anticancer activity against human SMOV2 cells after 5 days incubation by SRB proliferation assay; format: functional; settings: SMOV2, 120 h
[5] = Anticancer activity against human TOV21G cells after 5 days incubation by SRB proliferation assay; format: functional; settings: 120 h
[6] = target: T2, Protein phosphatase 1D (Homo sapiens) (UniProt O15297); settings: TOV21G, 1.25 to 5 uM
T2 sequence (whole entry): T1 sequence (O15297 whole entry)
Description: Inhibition of PPM1D in non-amplified human TOV21G cells assessed as increase in P-S15-p53 level at 1.25 to 5 uM after 24 hrs by Western blot analysis

[7] = tested on: SMOV2; experiment: Induction of apoptosis in human SMOV2 cells assessed as increase in PARP cleavage at 1.25 to 5 uM after 24 hrs by Western blot analysis; format: functional, cell-based
[8] = target: T2, Protein phosphatase 1D (Homo sapiens); settings: SMOV2, 1.25 to 5 uM
Description: Inhibition of PPM1D in human SMOV2 cells assessed as increase in P-S15-p53 level at 1.25 to 5 uM after 24 hrs by Western blot analysis

[9] = tested on: TOV21G; experiment: Induction of apoptosis in […] human TOV21G cells assessed as increase in PARP cleavage at 1.25 to 5 uM after 24 hrs by Western blot analysis; format: functional, cell-based
[10] = tested on: HeLa; experiment: Anticancer activity against PPM1D non-amplified human HeLa cells after 5 days incubation by SRB proliferation assay; format: functional; settings: 120 h
[11] = Anticancer activity against PPM1D amplified human KPL1 cells after 5 days incubation by SRB proliferation assay; format: functional; settings: KPL-1, 120 h
[12] = tested on: MCF7; experiment: Anticancer activity against PPM1D amplified human MCF7 cells after 5 days incubation by SRB proliferation assay; format: functional; settings: MCF7, 120 h
[13] = Anticancer activity against PPM1D non-amplified human CAMA1 cells after 5 days incubation by SRB proliferation assay; format: functional; settings: CAMA-1, 120 h
[14] = Anticancer activity against PPM1D non-amplified human SMOV2 cells after 5 days incubation by SRB proliferation assay; format: functional; settings: SMOV2, 120 h
[15] = Anticancer activity against […] human TOV21G cells after 5 days incubation by SRB proliferation assay; format: functional; settings: 120 h

Question: For `COc1cc(F)ccc1-c1nc(-c2ccc3[nH]c(=O)oc3c2)cs1`, which GI50 [1] is on record?
Answer: The GI50 was 5.7 µM.

Question: What about the IC50 [2] of the same compound?
Answer: Its IC50 is less than 20 µM.

Question: What about the GI50 [3] of the same compound?
Answer: The GI50 was greater than 50 µM.

Question: Which GI50 [1] does the source give for `Cc1cc(F)ccc1-c1nc(-c2ccc3[nH]c(=O)oc3c2)cs1` here?
Answer: The GI50 was 0.002 µM.

Question: What about the IC50 [2] of the same compound?
Answer: The IC50 was greater than 100 µM.

Question: And the GI50 [3]?
Answer: Its GI50 is greater than 50 µM.

Question: Which results are given for `Cc1cc(F)ccc1-c1nc(-c2ccc3[nH]c(=O)[nH]c3c2)cs1`?
Answer: GI50 [1]: 0.001 µM; IC50 [2]: < 20 µM; GI50 [3]: > 50 µM

Question: What does the source list for `O=c1[nH]c2ccc(-c3csc(-c4ccccc4)n3)cc2o1`?
Answer: IC50 [2]: < 20 µM; GI50 [4]: 2 µM; GI50 [5]: > 50 µM

Question: With `Cc1cc(F)ccc1-c1nc(-c2ccc3[nH]c(=O)n(CCN(C)C)c3c2)cs1` as the compound, how does the GI50 [1] read?
Answer: Its GI50 is 0.003 µM.

Question: And the IC50 [2]?
Answer: The IC50 was less than 20 µM.

Question: What about the GI50 [3] of the same compound?
Answer: Its GI50 is greater than 50 µM.

Question: Which GI50 [1] does the source give for `Cc1cc(F)ccc1-c1nc(-c2ccc3c(c2)CC(=O)N3)cs1` here?
Answer: The GI50 was 0.002 µM.

Question: What about the IC50 [2] of the same compound?
Answer: The IC50 was less than 20 µM.

Question: What about the GI50 [3] of the same compound?
Answer: Its GI50 is greater than 50 µM.

Question: Which GI50 [1] does the source give for `O=c1[nH]c2ccc(-c3csc(-c4ccc(F)cc4COCCN4CCCC4)n3)cc2o1` here?
Answer: Its GI50 is 0.013 µM.

Question: And the IC50 [2]?
Answer: The IC50 was less than 20 µM.

Question: And the GI50 [3]?
Answer: Its GI50 is greater than 50 µM.

Question: For `CCc1cc(F)ccc1-c1nc(-c2ccc3[nH]c(=O)oc3c2)cs1`, which GI50 [1] is on record?
Answer: The GI50 was 0.013 µM.

Question: And the IC50 [2]?
Answer: The IC50 was less than 20 µM.

Question: And the GI50 [3]?
Answer: Its GI50 is greater than 50 µM.

Question: With `O=c1[nH]c2ccc(-c3csc(-c4ccncc4)n3)cc2o1` as the compound, how does the IC50 [2] read?
Answer: The IC50 was less than 20 µM.

Question: And the GI50 [4]?
Answer: Its GI50 is 2.8 µM.

Question: And the GI50 [5]?
Answer: Its GI50 is greater than 50 µM.

Question: What does the source list for `O=c1[nH]c2ccc(-c3csc(-c4cccc(F)c4)n3)cc2o1`?
Answer: IC50 [2]: < 20 µM; GI50 [4]: 0.85 µM; GI50 [5]: > 50 µM

Question: Which results are given for `CN(C)CCc1cc(F)ccc1-c1nc(-c2ccc3[nH]c(=O)oc3c2)cs1`?
Answer: GI50 [1]: 0.04 µM; IC50 [2]: < 20 µM; GI50 [3]: > 50 µM

Question: Which results are given for `O=c1[nH]c2ccc(-c3csc(-c4ccc(F)c(O)c4)n3)cc2o1`?
Answer: GI50 [1]: 1.6 µM; IC50 [2]: < 20 µM; GI50 [3]: > 50 µM

Question: What does the source list for `CN(C)Cc1cc(F)ccc1-c1nc(-c2ccc3[nH]c(=O)oc3c2)cs1`?
Answer: GI50 [1]: 0.01 µM; IC50 [2]: < 20 µM; GI50 [3]: > 50 µM

Question: For `Cc1ccc(-c2nc(-c3ccc4[nH]c(=O)oc4c3)cs2)cc1`, which IC50 [2] is on record?
Answer: The IC50 was less than 20 µM.

Question: What about the GI50 [4] of the same compound?
Answer: Its GI50 is 24 µM.

Question: And the GI50 [5]?
Answer: Its GI50 is greater than 50 µM.

Question: Which IC50 [2] does the source give for `N#Cc1ccc(-c2nc(-c3ccc4[nH]c(=O)oc4c3)cs2)cc1` here?
Answer: The IC50 was less than 20 µM.

Question: And the GI50 [4]?
Answer: Its GI50 is 2 µM.

Question: And the GI50 [5]?
Answer: The GI50 was greater than 50 µM.

Question: Which GI50 [1] does the source give for `O=c1[nH]c2ccc(-c3csc(-c4ccc(F)cc4CO)n3)cc2o1` here?
Answer: Its GI50 is 0.023 µM.

Question: What about the IC50 [2] of the same compound?
Answer: Its IC50 is less than 20 µM.

Question: And the GI50 [3]?
Answer: The GI50 was greater than 50 µM.

Question: For `COCCOCc1cc(F)ccc1-c1nc(-c2ccc3[nH]c(=O)oc3c2)cs1`, which GI50 [1] is on record?
Answer: Its GI50 is 0.002 µM.

Question: And the IC50 [2]?
Answer: The IC50 was less than 20 µM.

Question: And the GI50 [3]?
Answer: The GI50 was greater than 50 µM.

Question: For `NCCOCc1cc(F)ccc1-c1nc(-c2ccc3[nH]c(=O)oc3c2)cs1`, which GI50 [1] is on record?
Answer: The GI50 was 0.003 µM.

Question: What about the IC50 [2] of the same compound?
Answer: Its IC50 is less than 20 µM.

Question: And the GI50 [3]?
Answer: The GI50 was greater than 50 µM.

Question: What does the source list for `O=c1[nH]c2ccc(-c3csc(-c4ccc(F)cc4CN4CCOCC4)n3)cc2o1`?
Answer: GI50 [1]: 0.52 µM; IC50 [2]: < 20 µM; GI50 [3]: > 50 µM

Question: Which inhibition [6] does the source give for `O=c1[nH]c2ccc(-c3csc(-c4ccc(F)cc4)n3)cc2o1` here?
Answer: The inhibition was “inactive”.

Question: And the GI50 [1]?
Answer: Its GI50 is 0.13 µM.

Question: What about the Activity [7] of the same compound?
Answer: The Activity was “Active”.

Question: And the IC50 [2]?
Answer: The IC50 was 23 µM.

Question: What about the GI50 [4] of the same compound?
Answer: The GI50 was 0.01 µM.

Question: What about the inhibition [8] of the same compound?
Answer: Its inhibition is “Active”.

Question: And the Activity [9]?
Answer: The Activity was “inactive”.

Question: What about the GI50 [5] of the same compound?
Answer: Its GI50 is greater than 50 µM.

Question: And the GI50 [3]?
Answer: The GI50 was greater than 50 µM.

Question: What does the source list for `O=c1[nH]c2ccc(-c3csc(-c4ccc(Cl)cc4)n3)cc2o1`?
Answer: IC50 [2]: < 20 µM; GI50 [4]: 0.63 µM; GI50 [5]: > 50 µM

Question: Which GI50 [1] does the source give for `Cc1cc(-c2nc(-c3ccc4[nH]c(=O)oc4c3)cs2)ccc1F` here?
Answer: Its GI50 is 0.25 µM.

Question: What about the IC50 [2] of the same compound?
Answer: Its IC50 is less than 20 µM.

Question: And the GI50 [3]?
Answer: The GI50 was greater than 50 µM.

Question: Which GI50 [1] does the source give for `Cc1cc(F)ccc1-c1nc(-c2ccc3c(c2)[nH]c(=O)n3CCN(C)C)cs1` here?
Answer: Its GI50 is greater than 50 µM.

Question: And the IC50 [2]?
Answer: Its IC50 is less than 20 µM.

Question: And the GI50 [3]?
Answer: The GI50 was greater than 50 µM.

Question: With `O=c1[nH]c2ccc(-c3csc(-c4ccc(F)c(C(F)(F)F)c4)n3)cc2o1` as the compound, how does the GI50 [1] read?
Answer: The GI50 was greater than 50 µM.

Question: And the IC50 [2]?
Answer: Its IC50 is less than 20 µM.

Question: And the GI50 [3]?
Answer: Its GI50 is greater than 50 µM.

Question: With `COCCOCc1cc(F)ccc1-c1nc(-c2ccc3[nH]c(=O)[nH]c3c2)cs1` as the compound, how does the GI50 [1] read?
Answer: Its GI50 is 0.013 µM.

Question: And the GI50 [10]?
Answer: Its GI50 is 3.9 µM.

Question: What about the GI50 [11] of the same compound?
Answer: The GI50 was 0.01 µM.

Question: What about the IC50 [2] of the same compound?
Answer: The IC50 was less than 20 µM.

Question: And the GI50 [12]?
Answer: Its GI50 is 0.005 µM.

Question: And the GI50 [13]?
Answer: Its GI50 is 15 µM.

Question: What about the GI50 [14] of the same compound?
Answer: The GI50 was 20 µM.

Question: What about the GI50 [15] of the same compound?
Answer: Its GI50 is 5.6 µM.

Question: What about the GI50 [3] of the same compound?
Answer: The GI50 was greater than 50 µM.

Question: What does the source list for `O=c1[nH]c2ccc(-c3csc(-c4ccc(F)c(F)c4)n3)cc2o1`?
Answer: GI50 [1]: 0.29 µM; IC50 [2]: < 20 µM; GI50 [3]: > 50 µM
